Reference: ChEMBL document CHEMBL3632590, “Development of Safe and Effective Botanical Dietary Supplements” (J Med Chem, 2015)

How the values were obtained:
[1] = Oral bioavailability in human; assay type: ADME, organism-based; conditions: in vivo
[2] = Terminal half life in orally dosed human by LC-MS/MS method; assay type: ADME, organism-based; conditions: in vivo, po, read-out: beta t1/2
[3] = Terminal half life in human at 60 mg, po by LC-MS/MS method; assay type: ADME, organism-based; conditions: in vivo, read-out: beta t1/2 (converted)
Cytochrome P450 2D6 = Cytochrome P450 2D6 (Homo sapiens, UniProt P10635); experiment: Competitive inhibition of CYP2D6 (unknown origin) using dextromethorphan substrate; assay type: ADME
Chain of Cytochrome P450 2D6 (P10635 whole entry): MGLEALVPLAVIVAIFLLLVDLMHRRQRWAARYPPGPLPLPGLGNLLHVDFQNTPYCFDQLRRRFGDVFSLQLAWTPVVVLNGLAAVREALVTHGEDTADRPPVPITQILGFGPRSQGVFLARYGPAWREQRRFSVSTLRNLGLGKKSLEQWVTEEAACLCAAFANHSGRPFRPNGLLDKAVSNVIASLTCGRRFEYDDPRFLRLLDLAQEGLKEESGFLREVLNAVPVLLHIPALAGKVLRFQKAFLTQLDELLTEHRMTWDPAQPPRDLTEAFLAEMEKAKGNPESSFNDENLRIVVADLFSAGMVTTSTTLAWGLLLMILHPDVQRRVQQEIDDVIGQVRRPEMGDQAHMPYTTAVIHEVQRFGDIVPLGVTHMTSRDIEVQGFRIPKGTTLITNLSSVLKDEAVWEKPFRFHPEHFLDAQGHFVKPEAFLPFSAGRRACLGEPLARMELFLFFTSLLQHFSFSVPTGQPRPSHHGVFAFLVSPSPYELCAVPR

SMILES | bioavailability [1] | half-life [2] | half-life [3] | Ki (Cytochrome P450 2D6)
COc1cc([C@@H]2Oc3cc([C@H]4Oc5cc(O)cc(O)c5C(=O)[C@@H]4O)ccc3O[C@H]2CO)ccc1O [SILYBIN B] | < 0.5% | < 2 h | – | –
COc1ccc2c(c1OC)CN(C)CCc1cc3c(cc1C(=O)C2)OCO3 [ALLOCRYPTOPINE] | – | – | – | 122 nM
COc1cc([C@H]2Oc3cc([C@H]4Oc5cc(O)cc(O)c5C(=O)[C@@H]4O)ccc3O[C@@H]2CO)ccc1O [SILYBIN A] | < 0.5% | < 2 h | – | –

More lines, main results first:

bioavailability [1] | half-life [2] | half-life [3] | SMILES | Ki (Cytochrome P450 2D6)
– | – | 20 h | COc1cc(O)c(CC=C(C)C)c(O)c1C(=O)/C=C/c1ccc(O)cc1 [XANTHOHUMOL] | –
– | – | 20 h | CC(C)=CCc1c(O)cc(O)c2c1OC(c1ccc(O)cc1)CC2=O (configuration not stated) [SOPHORAFLAVANONE B] | –
